Data on three compounds can be found in patent US7378401B2, “Use of Fosfluridine Tidoxil (FT) for the treatment of intraepithelial proliferative diseases” (Heidelberg Pharma GmbH, priority 2006, dated 2008).

The conditions of data set [1]: after intravenous administration; cited from earlier work.
Data set [2] concerns bone marrow cells. Nature of the data set: bone marrow toxicity after intravenous doses. Format: in vivo. The following applies: single and repeated intravenous doses.
The conditions of data set [3]: in vivo. The text has this: One of the drawbacks of using intravenously administered 5-Fluorouracil is bone marrow suppression, expressed clinically by increased susceptibility to infections and fatigue.
The subject of data set [4] is actinic keratosis. Description: oral Fosfluridine Tidoxil in patients with advanced actinic keratosis. Format: in vivo, human. The protocol: A person was suffering from an advanced actinic keratosis since more than 3 years. In this time they received different types of topical treatment, such as Solaraze (3% Diclofenac) or Aldara (Imiquimod). Thereafter they were treated with 50 mg of Fosfluridine Tidoxil (1 capsule). The patient received 3 cycles each cycle consisting of a once daily oral administration over 7 days followed by a treatment free week (two weeks per cycle).
A patient was diagnosed to have an actinic keratosis 15 years before and was now in an advanced stage. In the years before taking Fosfluridine Tidoxil they were, in essence, treated with Solaraze. Since the therapeutic benefit appears to be limited they then received 100 mg of oral Fosfluridine Tidoxil (2 capsules of 50 mg) over 3 cycles (as mentioned above).
A person with a first diagnosis of Actinic keratosis 1.6 years before use of Fosfluridine Tidoxil was treated topically, however, eventually without therapeutic benefit. […] They then received 100 mg of oral Fosfluridine Tidoxil (2 capsules of 50 mg) over 3 cycles (as described above). […] This patient was not treated over the next four months with any topical.
A patient suffered from Actinic keratosis for more than 7 years and was now in an advanced stage. […] […], then, received 100 mg of oral Fosfluridine Tidoxil (2 capsules of 50 mg) over 3 cycles (as de-scribed above). […] In the next 2 month this patient was not treated with any topical.

The test system of data set [5] is primary human keratinocytes.
Data set [6] has as its system SCLC xenograft. The following applies: mice, dose-dependent, maximum inhibition.
The conditions of data set [7]: mice, up to highest single p.o. dose tested of 3.8 g/kg.
Data set [8] relates to CFU-E and CFU-GM. The following applies: doses manifold higher than highly toxic doses of FUrd.
For data set [9] the following is noted: oral administration, mice.
For data set [10] the following is noted: oral administration, rhesus monkeys.
The conditions of data set [11]: man.

“Also recorded” adds a separate entry of the source. Read-outs that look alike come from different tables or passages of the source.

Turning to `O=c1[nH]cc(F)c(=O)[nH]1` [Example 5-FU, 5-Fluorouracil], the “drug eliminated within the first hour” value in data set [1] was “Over 90%”.
In the case of `O=c1[nH]c(=O)n([C@@H]2O[C@H](CO)[C@@H](O)[C@H]2O)cc1F` [Example 5-FUrd, 5-Fluorouridine, reference compound], the bone marrow toxicity entry in [2] was “dose-dependently suppressed bone marrow cells”.
For `CCCCCCCCCCCCSCC(COP(=O)([O-])OCC1OC(n2cc(F)c(=O)[nH]c2=O)C(O)C1O)OCCCCCCCCCC.[Na+]` (stereo not shown) [FT, (5-fluorouridine)-5′-phosphoric acid (3-dodecylmercapto-2-decyloxy)propylester, Na-salt], in [2], the bone marrow toxicity result is “did not result in bone marrow toxicity”. Further, in data set [3], the “distribution to the bone marrow” value was “not distributed to the bone marrow”. The “reduction of lesion count” value in data set [4] (50 mg oral once daily, 3 cycles (7 days on, 7 days off), plus one month of observation) turned out to be 34%. The “histological stage of lesions” value in data set [4] (50 mg oral once daily, 3 cycles, plus one month of observation, most severe area) is listed as “reduced from stage 3 to stage 1”; in data set [4] (100 mg oral once daily, 3 cycles, plus one month of observation, listed as Fosfluridine Tidoxil) it was “decreased from class 2 to class 1; also recorded: reduced from class 3 to class 2; also recorded: reduced from 3 to 1”. Besides, the “outcome in follow-up without any topical treatment” value in data set [4] (after 100 mg oral, 3 cycles, next 2-4 months without topical, listed as Fosfluridine Tidoxil) is recorded as “all actinic keratoses have disappeared; also recorded: all actinic lesions have disappeared”. Also, the “effectiveness in proliferating compared to non-proliferating keratinocytes” value in [5] is listed as “far more effective in proliferating primary human keratinocytes”. Besides, in data set [6], the “inhibition of SCLC xenograft tumor growth” value is listed as “up to 82%”. The “mortality in acute tolerability study” value in [7] was “no animal died”. Moreover, in data set [8], the “suppression of in vitro colony formation of CFU-E and CFU-GM” value is “did not suppress”. The plasma half-life in data set [9] was 4 to 5 h; in data set [10], 8 to 10 h; in data set [11] (oral administration), greater than 20 h. Also, the “plasma concentrations of 5-FU and 5-FUrd after administration of FT” value in data set [11] was “negligible”.
